According to ChEMBL document CHEMBL2016457, “Discovery of potent and orally bioavailable 17β-hydroxysteroid dehydrogenase type 3 inhibitors” (Bioorg Med Chem, 2012):
The source made the active and inactive calls. How the calls were made is not given here.

Key:
[1] = target: T1, 17-beta-hydroxysteroid dehydrogenase type 2 (Homo sapiens) (UniProt P37059); assay: Inhibition of human recombinant 17-beta-HSD2 expressed in human HeLa cells using estradiol as substrate preincubated for 30 mins prior substrate addition measured after 120 mins by spectrophotometry; format: cell-based
T1 sequence (whole entry): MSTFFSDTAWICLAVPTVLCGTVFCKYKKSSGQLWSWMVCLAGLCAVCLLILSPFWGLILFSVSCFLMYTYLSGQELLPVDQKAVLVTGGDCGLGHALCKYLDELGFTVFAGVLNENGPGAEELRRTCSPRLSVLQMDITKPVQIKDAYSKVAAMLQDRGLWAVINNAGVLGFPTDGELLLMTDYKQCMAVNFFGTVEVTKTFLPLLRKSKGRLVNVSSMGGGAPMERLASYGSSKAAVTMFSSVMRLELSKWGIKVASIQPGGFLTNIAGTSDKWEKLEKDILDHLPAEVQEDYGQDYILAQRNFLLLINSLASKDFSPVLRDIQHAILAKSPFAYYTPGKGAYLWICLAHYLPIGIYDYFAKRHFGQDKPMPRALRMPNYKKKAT

[2] = Tmax in Sprague-Dawley rat at 10 mg/kg, po; format: ADME, organism-based; set-up: dose 10 mg/kg, route oral; details: in vivo
[3] = Oral bioavailability in Sprague-Dawley rat at 10 mg/kg; format: ADME, organism-based; details: in vivo
[4] = target: T2, 17-beta-hydroxysteroid dehydrogenase type 3 (Homo sapiens, UniProt P37058)
T2 sequence (P37058 whole entry): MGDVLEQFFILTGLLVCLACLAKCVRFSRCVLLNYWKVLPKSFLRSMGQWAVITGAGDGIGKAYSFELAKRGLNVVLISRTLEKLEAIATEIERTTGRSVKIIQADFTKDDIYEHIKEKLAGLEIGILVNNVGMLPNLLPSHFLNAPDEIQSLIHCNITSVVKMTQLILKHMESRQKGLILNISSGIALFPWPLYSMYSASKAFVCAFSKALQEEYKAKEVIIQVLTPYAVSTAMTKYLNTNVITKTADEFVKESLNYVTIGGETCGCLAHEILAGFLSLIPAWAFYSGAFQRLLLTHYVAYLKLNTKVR
Description: Inhibition of human recombinant 17-beta-HSD3 expressed in human HeLa cells using androstenedione as substrate preincubated for 30 mins prior substrate addition measured after 120 mins by spectrophotometry

[5] = Cmax in Sprague-Dawley rat at 10 mg/kg, po; format: ADME, organism-based; set-up: dose 10 mg/kg, route oral; details: in vivo
[6] = target: T3, Glucocorticoid receptor (Homo sapiens) (UniProt P04150); assay: Antagonist activity at human GR receptor expressed in human HeLa cells assessed as inhibition of DHT-induced response after 40 hrs by luciferase/beta-galactosidase-based reporter gene assay; format: functional, cell-based
T3 sequence (whole entry): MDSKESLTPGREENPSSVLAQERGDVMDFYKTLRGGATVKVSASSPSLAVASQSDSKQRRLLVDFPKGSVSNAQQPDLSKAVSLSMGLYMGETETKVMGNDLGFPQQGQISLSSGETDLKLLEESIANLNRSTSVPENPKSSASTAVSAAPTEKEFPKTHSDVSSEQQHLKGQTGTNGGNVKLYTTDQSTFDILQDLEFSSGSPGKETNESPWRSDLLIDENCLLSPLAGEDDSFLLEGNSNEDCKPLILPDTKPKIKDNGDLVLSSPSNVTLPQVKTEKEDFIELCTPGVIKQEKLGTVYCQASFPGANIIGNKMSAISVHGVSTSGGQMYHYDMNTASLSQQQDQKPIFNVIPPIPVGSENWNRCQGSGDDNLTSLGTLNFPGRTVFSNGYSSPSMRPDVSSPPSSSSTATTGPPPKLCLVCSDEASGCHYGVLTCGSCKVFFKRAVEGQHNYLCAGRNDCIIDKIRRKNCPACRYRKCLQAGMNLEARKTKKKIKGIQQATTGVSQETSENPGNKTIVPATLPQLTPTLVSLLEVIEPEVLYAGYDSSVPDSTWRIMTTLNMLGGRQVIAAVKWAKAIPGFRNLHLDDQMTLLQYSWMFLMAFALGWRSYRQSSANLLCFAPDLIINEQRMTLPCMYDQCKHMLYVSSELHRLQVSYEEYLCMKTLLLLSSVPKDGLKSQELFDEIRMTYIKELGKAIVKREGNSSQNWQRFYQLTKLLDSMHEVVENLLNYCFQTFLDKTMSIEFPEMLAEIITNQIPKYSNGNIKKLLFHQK

[7] = AUC (0 to 24 hrs) in Sprague-Dawley rat at 10 mg/kg, po; format: ADME, organism-based; set-up: time < 24 hr, dose 10 mg/kg, route oral; details: plasma
Rattus norvegicus [8] = assay: Inhibition of LH-RH agonist leuprorelin-induced testosterone steroidogenesis in Sprague-Dawley rat at 100 mg/kg, po administered 1 hr prior leuprorelin-induction measured after 240 mins by GC/MS analysis relative to control; set-up: scale not given: the % may be the effect or the level left
Rattus norvegicus [9] = assay: Cmax in Sprague-Dawley rat assessed as 5-(3,5-Dichloro-4-hydroxybenzylidene)-3-(4-methoxyphenyl)-2-thioxo-1,3-oxazolidin-4-one concentration at 10 mg/kg, po; format: ADME, organism-based; set-up: dose 10 mg/kg, route oral; details: in vivo
Rattus norvegicus [10] = assay: Oral bioavailability in Sprague-Dawley rat assessed as 5-(3,5-Dichloro-4-hydroxybenzylidene)-3-(4-methoxyphenyl)-2-thioxo-1,3-oxazolidin-4-one concentration at 10 mg/kg; format: ADME, organism-based; details: in vivo
Rattus norvegicus [11] = assay: Inhibition of LH-RH agonist leuprorelin-induced testosterone steroidogenesis in Sprague-Dawley rat drug administered po 1 hr prior leuprorelin-induction measured up to 240 mins by GC/MS analysis; format: functional, organism-based
Rattus norvegicus [12] = assay: Inhibition of LH-RH agonist leuprorelin-induced testosterone steroidogenesis in Sprague-Dawley rat at 100 mg/kg, po administered 1 hr prior leuprorelin-induction measured up to 240 mins by GC/MS analysis relative to CB7630; format: functional
Rattus norvegicus [13] = assay: AUC (0 to 24 hrs) in Sprague-Dawley rat assessed as 5-(3,5-Dichloro-4-hydroxybenzylidene)-3-(4-methoxyphenyl)-2-thioxo-1,3-oxazolidin-4-one concentration at 10 mg/kg, po; format: ADME, organism-based, Plasma; set-up: time < 24 hr, dose 10 mg/kg, route oral; details: in vivo
Rattus norvegicus [14] = assay: Tmax in Sprague-Dawley rat assessed as 5-(3,5-Dichloro-4-hydroxybenzylidene)-3-(4-methoxyphenyl)-2-thioxo-1,3-oxazolidin-4-one concentration at 10 mg/kg, po; format: ADME, organism-based; set-up: dose 10 mg/kg, route oral; details: in vivo

inhibition [1]	Tmax [2] [h]	bioavailability [3] [%]	IC50 [4] [nM]	Cmax [5] [ng/mL]	Activity [6]	AUC(0-t) at 24 h [7] [ng·h/mL]	Cmax (Rattus norvegicus [9]) [ng/mL]	F (Rattus norvegicus [10]) [%]	AUC (Rattus norvegicus [13]) [ng·h/mL]	Tmax (Rattus norvegicus [14]) [h]	Compound	Activity (Rattus norvegicus [8]) [%]	inhibition (Rattus norvegicus [11])	fold change (FC) (Rattus norvegicus [12])
inactive	1	5.5	12	400	inactive	4000	–	–	–	–	COc1ccc(N2C(=O)/C(=C/c3cc(Cl)c(O)c(Cl)c3)OC2=S)cc1	–	–	–
inactive	–	–	–	–	inactive	–	5250	35.1	18800	1	COc1ccc(N2C(=O)/C(=C/c3cc(Cl)c(OP(=O)(O)O)c(Cl)c3)OC2=S)cc1	10	Dose-dependent effect	2
